Experimental data as given in patent publication US9180129B2, “Combination of lapatinib and trametinib” (NOVARTIS AG, priority 2010, dated 2015).
Read-outs that look alike come from different tables or passages of the source.

Tests used:
[1] = test system: Capan-1; assay: Cell growth inhibition assay, Capan-1 (pancreatic); format: cell-based; settings: Homo sapiens, 72 h, 3 days, read-out: Single agent IC50 (μM), mean ± STD
Method: (§1) All lines were kept in a humidified incubator at 37° C. in 95% air and 5% CO2. JIMT-1 is a cell line established from a tumor of a patient with trastuzumab-resistant breast cancer (Tanner et al, Mol Cancer Ther 2004; 3:1585-92).
(§2) All cells were cultured for a minimum of 72 hours prior to cell plating. Cells were seeded in a 96-well tissue culture plate (NUNC 136102) of RPMI media containing 10% FBS for all cell lines at 2,000 cells per well except KPL4, which was plated in DMEM containing 5% FBS at 500 cells per well. […] Cells were incubated in the presence of compounds for 3 days. ATP levels were determined by adding Cell Titer Glo® reagent (Promega) according to the manufacturer's protocol. Briefly, Cell Titer Glo® reagent was added to each plate, incubated for 20 minutes then the luminescent signal was read on the SpectraMax L plate reader with a 0.5 sec integration time.
(§3) Inhibition of cell growth was estimated after treatment with compound or a combination of compounds for three days and comparing the signal to cells treated with vehicle (DMSO). Cell growth was calculated relative to vehicle (DMSO) treated control wells. […]

[2] = test system: NCI-H747; assay: Cell growth inhibition assay, NCI-H747 (colorectal); format: cell-based; settings: Homo sapiens, 72 h, 3 days, read-out: Single agent IC50 (μM), mean ± STD
Method: as §1, §2, §3

[3] = test system: BT474; assay: Cell apoptosis assay, DNA fragmentation, BT474; format: cell-based, Human; settings: 48 hours, Roche Cell Death ELISA, combination at 2 to 1 molar ratio A:B (FIG. 2B)
Method: as §1
(§4) For investigation of the induction of apoptosis, cells were plated at 5,000 cells per well in a 96-well tissue culture plate and allowed to attach for approximately 24 hours. Forty-eight hours after treatment with compounds, levels of apoptosis were estimated using the Roche Cell Death ELISA kit (Cat. No. 11 774 425 001) following the instructions provided by the manufacturer.
(§5) FIG. 1. Dose response curves of cell growth inhibition in HCC1954, MDA-MB-175VII, CHL1 and BFTC-905.

[4] = test system: HCC1954; assay: Cell growth inhibition assay, HCC1954 (breast HER2+); format: cell-based; settings: Homo sapiens, 72 h, 3 days, read-out: Single agent IC50 (μM), mean ± STD
Method: as §1, §2, §3

[5] = test system: MDA-MB-453; assay: Cell growth inhibition assay, MDA-MB-453 (breast HER2+); format: cell-based; settings: Homo sapiens, 72 h, 3 days, read-out: Single agent IC50 (μM), mean ± STD
Method: as §1, §2, §3

[6] = test system: SW403; assay: Cell growth inhibition assay, SW403 (colorectal); format: cell-based; settings: Homo sapiens, SW-403, 72 h, 3 days, read-out: Single agent IC50 (μM), mean ± STD
Method: as §1, §2, §3

[7] = test system: LS174T; assay: Cell growth inhibition assay, LS174T (colorectal); format: cell-based; settings: Homo sapiens, 72 h, 3 days, read-out: Single agent IC50 (μM), mean ± STD
Method: as §1, §2, §3

[8] = test system: SW780; assay: Cell growth inhibition assay, SW780 (bladder); format: cell-based; settings: Homo sapiens, 72 h, 3 days, read-out: Single agent IC50 (μM), mean ± STD
Method: as §1, §2, §3

[9] = test system: JimT-1; assay: Cell growth inhibition assay, JimT-1 (breast HER2+, trastuzumab-resistant); format: cell-based, Human; settings: for IC50: Homo sapiens, 72 h, JimT-1, 3 days, read-out: Single agent IC50 (μM), mean ± STD; for sensitivity to cell growth inhibition, in words: JIMT-1 HER2+ breast cancer line
Method: as §1, §2
(§6) Inhibition of cell growth was estimated after treatment with compound or a combination of compounds for three days and comparing the signal to cells treated with vehicle (DMSO). Cell growth was calculated relative to vehicle (DMSO) treated control wells. A concentration of the compound that inhibits 50% of control cell growth (IC50) was interpolated using nonlinear regression with the equation, y=(A+(B−A)/(1+(C/x)^D)))), where A is the minimum response (ymin), B is the maximum response (ymax), C is the inflection point of the curve (EC50) and D is the Hill coefficient. […]

[10] = test system: AU565; assay: Cell growth inhibition assay, AU565 (breast HER2+); format: cell-based; settings: Homo sapiens, AU565, 72 h, 3 days, read-out: Single agent IC50 (μM), mean ± STD
Method: as §1, §2, §3

[11] = test system: HCC2218; assay: Cell growth inhibition assay, HCC2218 (breast HER2+); format: cell-based; settings: Homo sapiens, HCC2218, 72 h, 3 days, read-out: Single agent IC50 (μM), mean ± STD
Method: as §1, §2, §3

[12] = test system: CHL1; assay: Cell growth inhibition assay, CHL1 (melanoma); format: cell-based; settings: Homo sapiens, CHL-1, 72 h, 3 days, read-out: Single agent IC50 (μM), mean ± STD
Method: as §1, §2, §3

[13] = test system: HER2 positive (HER2+) breast tumor lines; assay: Cell growth inhibition assay, text summary over HER2+ breast lines; format: cell-based; settings: Homo sapiens; the HER2+ breast cancer lines listed in Table 1; read-out: IC50 as a single agent
Method: as §1, §2, §3

[14] = test system: five colorectal cancer cell lines; assay: Cell growth inhibition assay, colorectal lines; format: cell-based; settings: Homo sapiens; span over the five colorectal cancer cell lines of Table 1; read-out: IC50 values, single agent
[15] = test system: HPAF-11; assay: Cell growth inhibition assay, HPAF-11 (pancreatic); format: cell-based; settings: Homo sapiens, 72 h, 3 days, read-out: Single agent IC50 (μM), mean ± STD
Method: as §1, §2, §3

[16] = test system: BT474; assay: Cell growth inhibition assay, BT474 (breast HER2+); format: cell-based; settings: Homo sapiens, BT-474, 72 h, 3 days, read-out: Single agent IC50 (μM), mean ± STD
Method: as §1, §2, §3

[17] = test system: BT474-J4; assay: Cell growth inhibition assay, BT474-J4 (breast HER2+, acquired resistance to Compound A); format: cell-based; settings: Homo sapiens, 72 h, 3 days, read-out: Single agent IC50 (μM), mean ± STD
Method: as §1, §2, §3

[18] = test system: BFTC-905; assay: Cell growth inhibition assay, BFTC-905 (bladder); format: cell-based; settings: Homo sapiens, 72 h, 3 days, read-out: Single agent IC50 (μM), mean ± STD
Method: as §1, §2, §3

[19] = test system: SKMEL5; assay: Cell growth inhibition assay, SKMEL5 (melanoma); format: cell-based, Human; settings: 3 days, read-out: Single agent IC50 (μM), mean ± STD
Method: as §1, §2, §6

[20] = test system: 647V; assay: Cell growth inhibition assay, 647V (bladder); format: cell-based; settings: Homo sapiens, 72 h, 3 days, read-out: Single agent IC50 (μM), mean ± STD
Method: as §1, §2, §3

[21] = test system: KPL4; assay: Cell growth inhibition assay, KPL4 (breast HER2+); format: cell-based; settings: Homo sapiens, KPL4, 72 h, 3 days, read-out: Single agent IC50 (μM), mean ± STD
Method: All cells were cultured for a minimum of 72 hours prior to cell plating. […] Cells were incubated in the presence of compounds for 3 days.
Cell growth was calculated relative to vehicle (DMSO) treated control wells.
In general, a CI value <0.9, between 0.9 and 1.1, or >1.1 indicates synergy, additivity and antagonism, respectively. In general, the smaller the CI number, the greater is the strength of synergy.

[22] = test system: NCI-H508; assay: Cell growth inhibition assay, NCI-H508 (colorectal); format: cell-based; settings: Homo sapiens, 72 h, 3 days, read-out: Single agent IC50 (μM), mean ± STD
Method: as §1, §2, §3

[23] = test system: BT474-J4; assay: Cell apoptosis assay, DNA fragmentation, BT474-J4; format: cell-based, Human; settings: 48 hours, Roche Cell Death ELISA, combination at 2 to 1 molar ratio A:B (FIG. 2B)
Method: as §1, §4, §5

[24] = test system: SUIT2; assay: Cell growth inhibition assay, SUIT2 (pancreatic); format: cell-based; settings: Homo sapiens, SUIT-2, 72 h, 3 days, read-out: Single agent IC50 (μM), mean ± STD
Method: as §1, §2, §3

[25] = test system: HCC1419; assay: Cell growth inhibition assay, HCC1419 (breast HER2+); format: cell-based; settings: Homo sapiens, HCC1419, 72 h, 3 days, read-out: Single agent IC50 (μM), mean ± STD
Method: as §1, §2, §3

[26] = test system: SKBR3; assay: Cell growth inhibition assay, SKBR3 (breast HER2+); format: cell-based; settings: Homo sapiens, SK-BR-3, 72 h, 3 days, read-out: Single agent IC50 (μM), mean ± STD
Method: as §1, §2, §3

[27] = test system: three pancreatic cancer cell lines; assay: Cell growth inhibition assay, pancreatic lines; format: cell-based, Human; settings: HPAF-11, Capan-1 and SUIT2
Method: as §1, §2, §3

[28] = test system: T84; assay: Cell growth inhibition assay, T84 (colorectal); format: cell-based; settings: Homo sapiens, 72 h, 3 days, read-out: Single agent IC50 (μM), mean ± STD
Method: as §1, §2, §3

[29] = test system: A375 S2; assay: Cell growth inhibition assay, A375 S2 (melanoma); format: cell-based; settings: Homo sapiens, A375-S2, 72 h, 3 days, read-out: Single agent IC50 (μM), mean ± STD
Method: as §1, §2, §3

[30] = test system: SUM149; assay: Cell growth inhibition assay, SUM149 (breast HER2−); format: cell-based; settings: Homo sapiens, SUM149, 72 h, 3 days, read-out: Single agent IC50 (μM), mean ± STD
Method: as §1, §2, §3

[31] = test system: MDAMB175VII; assay: Cell growth inhibition assay, MDAMB175VII (breast HER2−); format: cell-based; settings: Homo sapiens, MDA-MB-175-VII, 72 h, 3 days, read-out: Single agent IC50 (μM), mean ± STD
Method: as §1, §2, §3

| SMILES | IC50 [1] | IC50 [2] | apoptosis induction determined by DNA fragmentation [3] | IC50 [4] | IC50 [5] | IC50 [6] | IC50 [7] | IC50 [8] | IC50 [9] | sensitivity to cell growth inhibition, in words [9] | IC50 [12] | IC50 [14] | IC50 [15] | IC50 [17] | IC50 [18] | IC50 ([19]; Homo sapiens, SK-MEL-5, 72 h) | IC50 [20] | IC50 [21] | IC50 [22] | IC50 [24] | also measured |
| --- | --- | --- | --- | --- | --- | --- | --- | --- | --- | --- | --- | --- | --- | --- | --- | --- | --- | --- | --- | --- | --- |
| CC(=O)Nc1cccc(-n2c(=O)n(C3CC3)c(=O)c3c(Nc4ccc(I)cc4F)n(C)c(=O)c(C)c32)c1 [Compound B, N-{3-[3-cyclopropyl-5-(2-fluoro-4-iodo-phenylamino)-6,8-dimethyl-2,4,7-trioxo-3,4,6,7-tetrahydro-2H-pyrido[4,3-d]pyrimidin-1-yl]phenyl}acetamide] | 0.086 ± 0.007 µM | 0.003 ± 0.002 µM | not active to induce apoptosis | > 1 µM | > 1 µM | 0.005 ± 0.004 µM | 0.099 ± 0.053 µM | 0.07 ± 0.042 µM | > 1 µM | resistant | 0.461 ± 0.382 µM | 0.003 to 0.099 µM | 0.059 ± 0.03 µM | > 1 µM | 0.012 ± 0.003 µM | ≤ 0.003 µM | > 1 µM | > 1 µM | 0.019 ± 0.005 µM | 0.196 ± 0.269 µM | IC50 [10]: > 1 µM; IC50 [11]: > 1 µM; IC50 [13]: > 1 µM; IC50 [16]: > 1 µM; IC50 [19]: 0.003 µM; apoptosis induction determined by DNA fragmentation [23]: not active to induce apoptosis; IC50 [25]: > 1 µM; IC50 [26]: > 1 µM; sensitivity as single agents, in words [27]: sensitive; IC50 [28]: 0.075 ± 0.039 µM |
| CS(=O)(=O)CCNCc1ccc(-c2ccc3ncnc(Nc4ccc(OCc5cccc(F)c5)c(Cl)c4)c3c2)o1 [Compound A, N-{3-Chloro-4-[(3-fluorobenzyl)oxy]phenyl}-6-[5-({[2-(methanesulphonyl)ethyl]amino}methyl)-2-furyl]-4-quinazolinamine] | > 10 µM | 2.64 ± 1.75 µM | induced apoptosis | 2.41 ± 1.57 µM | 4.48 ± 1.47 µM | 5.36 ± 1.55 µM | 7.18 ± 3.93 µM | 4.11 ± 1.39 µM | > 10 µM | resistant | 0.138 ± 0.004 µM | 0.149 to 7.18 µM | 10.5 ± 2.77 µM | > 10 µM | 4.28 ± 0.073 µM | 4.74 ± 1.08 µM | > 10 µM | < 1 µM | 0.149 ± 0.205 µM | > 10 µM | IC50 [29]: > 10 µM; IC50 [30]: 4.73 ± 1.37 µM; IC50 [31]: 0.146 ± 0.035 µM; sensitivity as single agents, in words [27]: resistant; IC50 [28]: 4.28 ± 1.35 µM |
